Data: US20100316729A1, “Use of Hyperbaric Conditions to Provide Neuroprotection” (AIR PRODUCTS AND CHEMICALS, INC., priority 2007, published 2010)
Entries after “also recorded” stand apart in the source; their conditions may differ.

System: organotypic hippocampal slice cultures (focal trauma to the CA1 region)
Experiment: in vitro model of traumatic brain injury: focal mechanical trauma to organotypic hippocampal slices, injury quantified by propidium iodide fluorescence
Assay type: cell-based, C57/BL6 mice
Details: for effect of added pressure of gas on development of total injury, highest added pressure / effect of added pressure of gas on development of total injury, low added pressures: gas added to 1 atm of 95% air/5% CO2, FIG. 4 / FIG. 5; for effect of added pressure of gas on development of total injury, highest added pressure: highest pressure tested (about 2 atm added, about 3 atm total); for effect of added pressure of gas on development of total injury, low added pressures: low added pressures (up to about 1 atm); for predicted level of normalized injury after 72 hours / observed degree of normalized injury after 72 hours: normobaric; for predicted level of normalized injury after 72 hours: 75% test gas replacing nitrogen, calculated from dashed lines of FIG. 4 / FIG. 5; for observed degree of normalized injury after 72 hours: 75% test gas/20% oxygen/5% CO2 (test gas substituted for nitrogen), 37° C., injury relative to control (75% nitrogen, 1 atm, 72 h) = 1
From the text: The properties of xenon and other gases were investigated in an in vitro model of traumatic brain injury (as described below in greater detail, under the heading “Example”). The model chosen involved creating a focal mechanical trauma centered on the CA1 region of cultured hippocampal brain slices, and assessing neurological injury using propidium iodide staining. A small solenoid retains a stylus 5 mm above a cultured hippocampal slice which is positioned using a micromanipulator. A fiber-optic light source illuminates the slice from beneath. As shown in (B) the stylus is constrained in a glass capillary and positioned just above the CA1 region of the hippocampus.
Organotypic hippocampal slice cultures were prepared as reported by Stoppini L, et al in “A simple method for organotypic cultures of nervous tissue” J Neurosci Methods 1991; 37:173-82, subject to some modifications. Briefly, brains were removed from seven-day-old C57/BL6 mice pups (Harlan UK Ltd., Bicester, Oxfordshire, UK) and placed in ice-cold “preparation” medium. The preparation medium contained Gey's balanced salt solution and 5 mg ml^−1 D-glucose (BDH Chemicals Ltd., Poole, Dorset, UK). The hippocampi were removed from the brains and 400 μm thick transverse slices were prepared using a McIllwain tissue chopper. Slices were transferred into ice-cold preparation medium, gently separated and then placed onto tissue culture inserts (Millicell-CM, Millipore Corporation, Billerica, Mass.) which were inserted into a six-well tissue culture plate. The wells contained “growth” medium which consisted of 50% Minimal Essential Media Eagle, 25% Hank's balanced salt solution, 25% inactivated horse serum, 2 mM L-glutamine, 5 mg ml^−1 D-glucose (BDH) and 1% antibiotic-antimycotic suspension. Slices were incubated at 37° C. in a 95% air/5% CO2 humidified atmosphere. The growth medium was changed every three days. Experiments were carried out after 14 days in culture.
After the hippocampal slices had been in culture for 14 days, the growth medium was changed to “experimental” medium. The experimental medium was serum-free and consisted of 75% Minimal Essential Media Eagle, 25% Hank's balanced salt solution, 2 mM L-glutamine, 5 mg ml^−1 D-glucose, 1% antibiotic-antimycotic suspension and 4.5 μM propidium iodide.
The trauma to the slices was produced with a specially designed apparatus (FIG. 1) which was based on published descriptions (Adamchik Y, et al “Methods to induce primary and secondary traumatic damage in organotypic hippocampal slice cultures” Brain Res Brain Res Protoc 2000; 5:153-8 and Adembri C, et al “Erythropoietin attenuates post-traumatic injury in organotypic hippocampal slices” J Neurotrauma 2004; 21:[…], 21). Under a stereomicroscope a stylus was positioned 5 mm above the CA1 region of the hippocampus using a three-axis micromanipulator. The stylus dropped onto the slice with an impact of 3.5 μJ when power to a small electromagnet was switched off. […] The distal part of the stylus was smooth and rounded in order to prevent perforation of the slice and the impact produced a focal injury with a diameter of 750±17 μm (mean±SD).
After traumatizing the CA1 region, the culture trays were transferred to a small pressure chamber which contained a high-speed fan for rapid gas mixing. The pressure chamber was capable of maintaining a constant pressure of up to six atmospheres for several days. The pressure chamber was housed in an incubator which was set at 37° C. for normothermic experiments or 32° C. for experiments at moderate hypothermia. Subsequently, the pressure chamber (gas volume 0.925 litre) was flushed with humidified control gas (95% air and 5% CO2) for 5 min at 5 litres min^−1 which ensures better than 99.99% gas replacement. After flushing, the pressure chamber was sealed, and slices under these conditions were considered to be the “injury controls” (75% nitrogen/20% oxygen/5% CO2). […]

N#N [nitrogen]
theoretical effect of increased gas level per se (effects of helium/pressure subtracted) (dashed line in FIG. 4, independent of the effects of pressure): detrimental in a fashion that is roughly linear with increasing amounts | injury outcome with added nitrogen compared with added helium (nitrogen substituted for helium as added gas, all pressures 0.25-2 atm added, FIG. 4): significantly worse injury outcome

[He] [helium]
effect of added pressure of gas on development of total injury, highest added pressure: came back close to control levels | effect of added pressure of gas on development of total injury, low added pressures: potent neuroprotection; also recorded: injury decreased | predicted level of normalized injury after 72 hours: 0.75 | observed degree of normalized injury after 72 hours: 0.67±0.10

[Xe] [xenon]
effect of added pressure of gas on development of total injury, highest added pressure: toxicity; also recorded: significant neurotoxicity | effect of added pressure of gas on development of total injury, low added pressures: marked neuroprotection | predicted level of normalized injury after 72 hours: 0.59 | observed degree of normalized injury after 72 hours: 0.50±0.04
